Measurements from patent publication US20250368687A1, “SHORT SYNTHETIC PEPTIDES AND USES THEREOF IN THE TREATMENT OF ENTEROVIRUS INFECTION” (CITY UNIVERSITY OF HONG KONG, priority 2024, published 2025).

Key:
Assay type in all cases: cell-based
[1] = CCK-8 assay; conditions: human; RD cells, data not shown
Method: RD cells were seeded in 96-well cell plates (1×10^4/well) and placed in the 5% CO2 incubator for 1 day. Then the cells were treated with peptides for 2 days. 90 μl medium and 10 μl of CCK-8 (BioSharp, BS350B) was added to each well of the 96-well plate, which were incubated at 37° C. for 1 h. A microplate reader (BioTek, Synergy H1) was used to measure the OD value of each well at 450 nm.

[2] = system: 2Apro-induced relocalization of Hsp27 and hnRNP A1 in RD cells; assay: Immunofluorescence colocalization assay of 2Apro-induced relocalization of Hsp27 and hnRNP A1; conditions: 25 μM for 2 hours, transfected with 2Apro for 24 hours
Method: FIGS. 9A-9B Peptide S78 blocks the 2A^pro-induced relocalization of Hsp27 and hnRNP A1. RD cells on the coverslips were treated with peptides (S78, S78A, and S82A) at the concentration of 25 μM for 2 hours, and then transfected with 2A^pro for 24 hours. The cells were fixed and stained with anti-Hsp27and anti-hnRNPAI, followed by Alexa Fluor 488-conjugated anti-rabbit antibody and Alexa Fluor 594-conjugated anti-mouse antibody. The nuclei were stained with Hoechst. The images were captured by Nikon A1HD25 Confocal Microscope. The JACoP-plugin of the extended ImageJ version Fiji was used to compute the M1 colocalization coefficient, in which (FIG. 9A) is M1 colocalization coefficient for the fraction of Hsp27 in Hoechst and (FIG. 9B) is the M1 colocalization coefficient for the fraction of hnRNP A1 in Hoechst. Statistical analyses were carried out using Student's t-test. *: p<0.05, **: p<0.01, ***: p<0.001. Data are expressed as mean ±SD.
The cells on coverslips were infected with EV-A71 at the multiplicity of infection (MOI) of 40 for 6 hrs to assure the high efficiency of viral infection. Then the cells were fixed by 4% paraformaldehyde for 20 min, permeabilized by 0.5% Triton X-100 for 15 min, blocked with 5% BSA for 2 hrs, and stained by incubation with anti-Hsp27 (GTX101145) and anti-hnRNP A1 (sc-32301) antibody, then with Alexa Fluor 488 conjugated anti-rabbit antibody and Alexa Fluor 594 conjugated anti-mouse antibody respectively. After washing four times with 0.2% Triton X-100, the nuclei were stained with DAPI or Hoechst for 5 min. The images were captured by a Nikon A1HD25 High speed and Large Field of View Confocal Microscope. Colocalization analysis was conducted using the JACoP-plugin of the extended ImageJ version Fiji. The M1 colocalization coefficient was computed to illustrate the colocalization levels of Hsp27 and hnRNP A1 overlapped with Hoechst.

[3] = system: EV-A71 VP1; assay: Western blot of EV-A71 VP1 level in RD cells; conditions: for EV-A71 VP1 protein level (in words): indicated concentrations
Method: FIGS. 10A-10K. Peptide S78 inhibited EV-A71 replication and propagation. (FIG. 10A) RD cells were pre-treated with peptides S78 or for 2 hours and infected with EV-A71 at the MOI of 10 for 6 hours. Cell lysates were collected for western blot assay. Hsp27 phosphorylation on Ser 15, 78, 82 were detected by specific antibodies. β-Actin were detected as internal control. (FIG. 10B) Densitometric analysis of FIG. 9A. (FIG. 10C) HEK 293T cells were pre-treated with peptides S78 or S78A at the concentration of 25 μM for 2 hours and then co-transfected with Hsp27-WT plasmid (800 ng), pIRES reporter plasmid (200 ng) and 2A^pro-expressing plasmid or 2AC110A-expressing plasmid (200 ng) for 24 h, then the luciferase activity was measured. (FIG. 10D-10E) RD cells were treated with peptides S78 or S78A and then infected with EV-A71. EV-A71 VP1 were detected. (FIG. 10F) RD cells were treated with peptides and then infected with EV-A71 at the MOI of 1 for 12 hours. The EV-A71-induced CPE was captured. (FIG. 10G-10H) Intracellular viral RNA was extracted and quantified by qPCR. (FIG. 10I) Densitometric analysis FIG. 9D-E. (FIG. 10J) RD cells were treated with peptides S78 or and then infected with EV-A71 at the MOI of 1 for 12 hours. Extracellular viral RNA was extracted and quantified by qPCR. (FIG. 10K) Viral titration was calculated by TCID50. The Statistical analyses were carried out using Student's t-test. *: p<0.05, **: p<0.01, ***: p<0.001. Data are expressed as mean ±SD.
FIGS. 11A-11G Inhibition of EV-A71 Protein Translation and Viral Reproduction by peptide S82A. (FIG. 11A) HEK 293T cells were pre-treated with peptides NC, S78, S78A, S82A, or S78-3A at the concentration of 25 μM for 2 hours and then co-transfected with Hsp27-WT plasmid (800 ng), pIRES reporter plasmid (200 ng) and 2A^pro-expressing plasmid for 24 h, then the luciferase activity was measured. (FIG. 11B) RD cells were pre-treated with peptides NC at indicated concentrations for 2 hours and infected with EV-A71 at the MOI of 1 for 9 hours. Intracellular viral RNA was extracted and quantified by qPCR. (FIG. 11C-11E) RD cells were treated with peptides NC, S82A, or S78-3A at indicated concentrations for 2 hours and then infected with EV-A71 at the MOI of 1 for 9 hours. Cell lysates were collected for western blot assay. EV-A71 VP1 were detected. β-Actin was detected as an internal control. (FIG. 11F) Densitometric analysis of the EV-A71 VP1 level in FIG. S7C-E was quantified and normalized with β-Actin using ImageJ. (FIG. 11G) RD cells were treated with peptides S78, S78A, S82A, or S78-3A at the concentration of 25 μM for 2 hours and then infected with EV-A71 at the MOI of 0.1 for 24 hours. Viral titration was calculated. The Statistical analyses were carried out using Student's t-test. *: p<0.05, **: p<0.01, ***: p<0.001. Data are expressed as mean ±SD.
After cell lysis in Nonidet-P40 (NP-40) buffer, the cell lysates were centrifuged, and the concentration was determined by Bradford assay (Bio-Rad). 20 μg of protein was used for 12% SDS-PAGE and transferred onto polyvinylidene fluoride membrane (PVDF) (GE, MA, USA). Following 5% bovine serum albumin (BSA) blocking for 1 hrs, the membrane was incubated with antibodies (1:1000) against Hsp27 (sc-13132), pHsp27-Ser15 (ab76313), pHsp27-Ser78 (ADI-SPA-523), pHsp27-Ser82 (ab155987), VP1 (GTX132339), β-Actin (sc-47778), hnRNP A1 (sc-32301), or GAPDH (sc-32233) overnight in 4° C. After secondary antibodies (HRP-conjugated Affinipure Goat Anti-Mouse IgG(H+L), SA00001-1, and HRP-conjugated Affinipure Goat Anti-Rabbit IgG(H+L), SA00001-2) incubation for 1 hrs, the protein was visualized with a chemiluminescence reagent (PerkinElmer, MA, USA) on Bio-Rad Chemidoc Imaging System. The protein bands were quantified by densitometry with ImageJ if necessary.

## Ac-RKKRRQRRRAYSRALARQLSS-NH2 [S78A]
[1]
  CC50 at 2 days: > 600 µM
[2]
  2Apro-induced relocalization of Hsp27 and hnRNP A1: still showed a certain cellular redistribution
[3]; 50 μM
  reduction of VP1 level (densitometric assay): about 60%
[3]
  EV-A71 VP1 protein level (in words): much weaker

## Ac-RKKRRQRRRAYSRALSRQLSS-NH2 [S78]
[1]
  CC50 at 2 days: > 600 µM
[2]
  2Apro-induced relocalization of Hsp27 and hnRNP A1: almost completely blocked
[3]; 50 μM
  EV-A71 VP1 protein level at 50 μM (in words): almost undetectable level
  reduction of VP1 level (densitometric assay): over 99%
[3]
  EV-A71 VP1 protein level (in words): dramatically decreased

## Ac-RKKRRQRRRYSREANQPKPSPKRESGEE-NH2 [NC, reference compound]
[3]
  EV-A71 VP1 protein level (in words): no effect
